Results reported in US6426087B1, “Orally administrable immediate-release and prolonged-release galenic form comprising an absorption-promoting agent and use of this absorption-promoting agent” (Merck Patent Gesellschaft mit, priority 1998, dated 2002).

How the values were obtained:
Caco-2 line = assay: Permeability of carbon 14-labelled acamprosate with promoting agents in the Caco-2 cellular model (diffusion chamber); format: in vitro ADME, human; details: Papp of acamprosate
Excerpt: (§1) Actions of various promoting agents or mixtures of promoting agents on the permeability of calcium acetylhomotaurinate, in the Caco-2 cellular model.
(§2) A solution of carbon 14-labelled acamprosate, of known concentration, is placed in the apical compartment of a Grass Sweetana-type diffusion chamber which comprises a second so-called basolateral compartment separated from the first by an insert supporting a monocellular confluent culture of human colon adenocarcinoma […] epithelial cells, Caco-2 line.
(§3) Samples are collected at regular intervals from the second basolateral compartment. The acamprosate concentration is determined by […]. A simple calculation makes it possible to obtain the apparent permeability coefficient (Papp). The acamprosate solution is supplemented with various promoting agents or mixtures of promoting agents, under varying conditions. The influence of these agents on the apparent permeability coefficient (Papp) was measured. The experimental results are grouped together in the following table where the apparent permeability coefficient values (Papp) are expressed in cm/s.

[1] = as above; format: in vitro ADME, human; details: human, Caco-2; acamprosate solution, promoting agent: None; apical to basolateral; read-out: Papp, Mean (n = 6)
Excerpt: as §1, §2, §3

## CCCCCCCCCC(=O)O [Capric]
Caco-2 line; promoting agent Conc. 0.25 % m/v
  Papp, Mean (n = 6): 63.6 10^−7 cm/s

## C[C@H](CCC(=O)NCC(=O)[O-])[C@H]1CC[C@H]2[C@@H]3[C@H](O)C[C@@H]4C[C@H](O)CC[C@]4(C)[C@H]3C[C@H](O)[C@]12C.[Na+] [Na glycocholate, sodium glycocholate]
Caco-2 line; promoting agent Conc. 0.2 % m/v
  Papp, Mean (n = 6): 114 10^−7 cm/s

## CC(=O)NCCCS(=O)(=O)O [acamprosate, calcium 3-acetylamino-1-propanesulphonate, reference compound]
[1]
  Papp A→B: 24 nm/s
